Patent publication US20120095024A1, “TOLUIDINE SULFONAMIDES AND THEIR USE” (Elara Pharmaceuticals GmbH, priority 2008, published 2012)

Columns and labels:
MCF7 cells = test: Cell proliferation assay (ATPlite), MCF-7; format: cell-based, human; details: Homo sapiens, inhibition of cell proliferation, 72 h
In short: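 Cells seeded (MCF-7 2000/well, HG-1 1000/well in RPMI with 2 ng/ml IL-6), then after 24 h exposed to compound at 0.5% DMSO final for 72 h. Proliferation read as ATP luminescence (ATPlite); EC50 calculated from the dose-response.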

tubulin = target: T1, tubulin (Sus scrofa, UniProt P02550+P02554); test: Inhibition of in vitro tubulin polymerization; format: biochemical, porcine; details: final absorbance 340 nm at 90 min
T1 construct: prepared in-house from porcine brain using a standard procedure involving cycles of polymerization/de-polymerization; from tissue; host or cells: porcine brain
T1 sequence (P02550 whole entry): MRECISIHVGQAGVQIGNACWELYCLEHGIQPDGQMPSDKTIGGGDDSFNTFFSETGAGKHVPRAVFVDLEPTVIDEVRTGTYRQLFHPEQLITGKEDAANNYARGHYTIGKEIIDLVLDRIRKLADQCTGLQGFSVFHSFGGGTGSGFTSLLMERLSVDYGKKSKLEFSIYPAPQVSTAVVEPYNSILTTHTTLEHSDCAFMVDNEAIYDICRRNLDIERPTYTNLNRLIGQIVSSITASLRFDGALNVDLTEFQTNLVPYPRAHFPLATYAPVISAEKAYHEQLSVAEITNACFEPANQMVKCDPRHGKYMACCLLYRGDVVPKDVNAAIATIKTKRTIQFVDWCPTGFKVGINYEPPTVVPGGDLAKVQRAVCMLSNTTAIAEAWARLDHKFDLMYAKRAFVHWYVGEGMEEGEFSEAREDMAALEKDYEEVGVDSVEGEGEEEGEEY
T1 sequence (P02554 whole entry): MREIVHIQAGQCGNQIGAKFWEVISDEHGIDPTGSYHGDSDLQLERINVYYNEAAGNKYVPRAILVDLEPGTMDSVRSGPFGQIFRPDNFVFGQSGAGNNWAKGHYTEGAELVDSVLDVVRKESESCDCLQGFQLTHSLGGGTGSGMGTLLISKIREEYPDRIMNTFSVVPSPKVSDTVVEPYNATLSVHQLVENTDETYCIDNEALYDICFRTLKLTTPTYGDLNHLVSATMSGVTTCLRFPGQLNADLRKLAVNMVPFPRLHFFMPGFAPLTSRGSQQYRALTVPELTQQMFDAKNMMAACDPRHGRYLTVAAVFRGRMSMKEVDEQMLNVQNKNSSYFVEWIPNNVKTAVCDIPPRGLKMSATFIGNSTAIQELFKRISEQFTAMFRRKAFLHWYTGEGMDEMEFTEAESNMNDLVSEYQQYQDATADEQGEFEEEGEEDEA
Experimental: To assess the degree of inhibition of in vitro tubulin polymerization, a tubulin solution (prepared in-house from porcine brain using a standard procedure involving cycles of polymerization/de-polymerization, see Castoldi & Popov (2003) Protein Expr. Purif. 32(1): 83-88) was incubated with varying concentrations of compounds under polymerizing conditions and kinetic experiments performed to determine the amount of polymerization (as measured by changes in OD at 340 nm) taking place over a 90 min period.
Compound solutions were diluted in double-distilled water to yield final 10× solutions containing 5% DMSO. 5 μl solutions were then added to the wells on a 384-well clear-bottom plate (Corning #3711, Corning Inc.) in preparation for the addition of tubulin. The tubulin solution (19.6 mg/ml, in 80 mM K-PIPES [pH 6.8], 1 mM MgCl2, 1 mM EGTA) was re-suspended to a final concentration of 4 mg/ml with ice cold G-PEM buffer (80 mM PIPES [pH 6.8], 2 mM MgCl2, 0.5 mM EGTA, 10% glycerol, 1 mM GTP) and maintained on ice for at least 1 min. 50 μl was then added to the pre-dispensed compound solutions, the plate orbital shaken on a medium setting for 5 s, and the first measurement begun immediately.
Experiments were carried out on a Safire^2™ monochromator (Tecan) preset to a stable temperature of 37° C.; the degree of polymerization was determined by measuring the absorbance of the solutions at 340 nm every minute over the 90 min cycle. Reported inhibition values were based on the final absorbance at 90 min and calculated with reference to a vehicle control (0.5% DMSO) using the minimum and maximum signals obtained for this sample.

[1] = test system: HIF mediated transcription; test: Inhibition of activation of HIF mediated transcription under hypoxic conditions (CellSensor HRE-bla HCT-116); format: cell-based; details: Homo sapiens; HRE-bla HCT-116 cells, deferoxamine-induced hypoxia, 24 h
Experimental: Inhibition of an activated HIF signaling response under chemically-induced hypoxic conditions due to compound treatment was determined using the CellSensor® HRE-bla HCT-116 stably transfected reporter cell line from Invitrogen according to the manufacturer's instructions. HIF is a transcriptional factor composed of the constitutively expressed HIF1β subunit and one of three HIFα subunits (HIF1α, HIF2α, HIF3α). This assay is responsive towards HIFa activity in general. In one example, HIF-1, when stabilized by hypoxic conditions, upregulates several genes to promote cell survival in low-oxygen conditions. These include glycolysis enzymes, which allow ATP synthesis in an oxygen-independent manner, and vascular endothelial growth factor (VEGF), which promotes angiogenesis. HIF-1 acts by binding to HIF-responsive elements (HREs) in promoters that generally contain the sequence NCGTG.
Cells were maintained as described previously and seeded into 384-well, clear-bottom plates (Corning 3712) at 15000 cells/well in 32 μl assay medium (Opti-MEM [Invitrogen], 0.5% FBS, 100 U/ml penicillin, 100 μg/ml streptomycin, 0.1 mM non-essential amino acids [NEAA], 1 mM sodium pyruvate, 5 mM HEPES [pH 7.3]). Following a 2 h incubation period, compounds (4 μl) were subsequently added to the cells at 10× concentrations in 5% DMSO and incubated under normal conditions for 30 min. To induce hypoxic conditions, 4 μl of a 2 mM deferoxamine (DFO) solution was added to the cells followed by 24 h incubation under standard assay conditions (as described). Control wells included wells containing only medium (no cells) and wells treated with 0.5% DMSO instead of compound.
Prior to the readout, the Substrate Loading Solution was prepared as described in the manufacturer's protocol and 10 μl added to each well. Following a further 2 h incubation period at room temperature and in the dark, fluorescence was measured at two wavelengths (blue channel: ex. 409 nm, em. 460 nm; green channel: ex. 409 nm, em. 530 nm) on a PerkinElmer Envision HTS. For the analysis, the average signal of the cell-free wells at 460 nm and 530 nm was first subtracted from the blue and green channel data, respectively. The blue/green emission ratios were then calculated for each well, dividing the background-corrected blue emission values by the background-corrected green emission values. IC50 values were determined from these ratios using GraphPad Prism (Prism 5, GraphPad software, Inc.).

HG1 cells = test: Cell proliferation assay (ATPlite), HG-1; format: cell-based; details: inhibition of cell proliferation, 72 h
Experimental: MCF-7 human breast adenocarcinoma cells and HL-60 acute promyelocytic leukaemia cells were obtained from ATCC (LGC Promochem). HG-1 multiple myeloma cells were obtained from Dr. D. Hose (DKFZ Heidelberg). The CellSensor® HRE-bla HCT116 cell line (colorectal carcinoma) was obtained from Invitrogen.
Cells were grown under humidified 95% air, 5% CO2 at 37° C. in Dulbecco's modified Eagle's medium (DMEM: MCF-7) or RPMI 1640 medium (RPMI: HL-60, HG-1) supplemented with 10% fetal bovine serum (FBS), 100 U/ml penicillin and 100 μg/ml streptomycin, 2 mM L-glutamine, and 2 ng/ml IL-6 (for the HG-1 cell line only). The HCT116 cell line was grown under the same atmospheric conditions in McCoy's 5A medium supplemented with 10% FBS and penicillin/streptomycin as above, in addition to blasticidin as a selection marker at a final concentration of 5 μg/ml.
Cell proliferation experiments were carried out in 96-well tissue culture plates with seeding of 2000 cells/well (MCF-7) or 1000 cells/well (HL-60, HG-1) in 100 μl of the relevant medium. Cells were subsequently incubated under the conditions mentioned for 24 h prior to addition of compounds.
For the determination of compound EC50 values, 10 μl compounds at 11× concentrations in 5.5% DMSO were added to the wells at various concentrations yielding a final constant percentage of 0.5% DMSO at the desired 1× compound concentration. As a positive control, cells were treated with 5.5% DMSO. The cells were then incubated for a further 72 h prior to the measurement.
To determine the degree of inhibition of cell proliferation, cells were treated with ATPlite solution according to the manufacturer's instructions (PerkinElmer, ATPlite 1-step Luminescence ATP Detection Assay System) and luciferase readout measured on an Envision HTS multilabel plate reader (PerkinElmer) in luminescence mode according to established protocols. Raw data were imported into an ActivityBase database (IDBS, ID Business Solutions) and EC50 values calculated using the IDBS program ActivityBase XE. Table 2A and 2B show the IC50 values obtained in the above-outlined cell proliferation assay for exemplary compounds of the invention.

[2] = test system: estrogen receptor (ER)-mediated transcriptional activity; test: Inhibition of estrogen receptor (ER) signaling, ERE-tk-luc transfection assay in MCF-7 cells; format: cell-based; details: Homo sapiens, MCF7, ERE-tk-luc luciferase readout, 24 h
Experimental: To determine the effect of the compounds on estrogen receptor (ER)-mediated transcriptional activity a transfection assay using the MCF-7 cell line was performed. A luciferase-coupled ERE-tk-luc construct was obtained from Dr. G. Reid (EMBL).
In brief, MCF-7 cells were maintained as described previously and seeded on the first experimental day at a concentration of 3500 cells/well in 100 μl medium and incubated under standard conditions for 24 h. Following this initial incubation period, transfection was carried out using 5 ng of the ERE-tk-luc construct (per well) and Exgene 500 transfection reagent (Fermentas) in a final buffered solution containing 150 mM NaCl and 20 mM Tris pH 8.4. The plates were then maintained for 3-4 hours until cell culture conditions in the incubator before compounds were added at 11× concentrations to yield the final desired compound concentrations in 0.5% DMSO (in the same manner as for the proliferation assays described previously).
After an additional 24 h incubation period the degree of inhibition of ER-signaling was determined via a luciferase readout. Cells were treated with Britelite™ plus solution according to the manufacturer's instructions (PerkinElmer, britelite plus, Ultra-High Sensitivity Luminescence Reporter Gene Assay System) and luciferase levels measured on an Envision HTS multilabel plate reader (PerkinElmer) in luminescence mode according to established protocols. Raw data were imported into an ActivityBase database (IDBS, ID Business Solutions) and IC50 values calculated using the IDBS program ActivityBase XE.

caspase-3/7 = test: Activation of apoptosis, Caspase-Glo 3/7 in HG-1 cells; format: cell-based; details: caspase-3/7 activation, 24 h
Experimental: Activation of caspase-3/7 signal following treatment with test compounds was carried out using a Caspase-Glo® 3/7 kit (Promega). In brief, HG-1 cells were seeded at a concentration of 1000 cells/well in 50 μl medium into 96-well plates and incubated for 24 h under the conditions described previously. Compounds at various concentrations were then added to the wells (at all final concentrations 0.5% DMSO) and incubated for a further 24 h period. The plates were subsequently removed from the incubator and allowed to equilibrate to room temperature, after which 50 μl Caspase-Glo reagent was added to all wells, the plate shaken at 300 rpm for 30 s, and luminescence measured after a 30 min incubation period on an Envision HTS (PerkinElmer).

| EC50 (MCF7 cells) [nM] | inhibition at 10 µM (tubulin) [%] | EC50 [1] [nM] | IC50 [2] [nM] | EC50 (caspase-3/7) [nM] | Compound | EC50 (HG1 cells) [nM] |
| --- | --- | --- | --- | --- | --- | --- |
| < 500 | > 50 | < 500 |  |  | Cc1ccc(S(=O)(=O)Nc2cc(-c3cscc3C)ccc2C)cc1 [Example 23, 4-Methyl-N-[2-methyl-5-(4-methyl-thiophen-3-yl)-phenyl]-benzenesulfonamide] |  |
| < 500 |  | < 500 |  | < 500 | COc1ccc(S(=O)(=O)Nc2cc(-c3ccc(C#N)s3)ccc2C)cc1 [Example 51, N-[5-(5-Cyano-thiophen-2-yl)-2-methyl-phenyl]-4-methoxy-benzenesulfonamide] | < 500 |
| < 500 | > 50 |  |  | < 500 | COc1ccc(S(=O)(=O)Nc2cc(-c3cc(C#N)cs3)ccc2C)cc1 [Example 56, N-[5-(4-Cyano-thiophen-2-yl)-2-methyl-phenyl]-4-methoxy-benzenesulfonamide] |  |
| < 500 | < 20 |  | < 500 | < 500 | Cc1ccc(S(=O)(=O)Nc2cc(-c3ccc(C#N)cc3)ccc2C)cc1 [Example 60, N-(4′-Cyano-4-methyl-biphenyl-3-yl)-4-methyl-benzenesulfonamide] |  |
| < 500 | < 20 |  |  | < 500 | COc1ccc(S(=O)(=O)Nc2cc(-c3ccc(C#N)cc3)ccc2C)cc1 [Example 63, N-(4′-Cyano-4-methyl-biphenyl-3-yl)-4-methoxy-benzenesulfonamide] |  |
| < 500 | < 20 |  | < 500 |  | Cc1ccc(S(=O)(=O)Nc2cc(-c3ccc(C#N)c(C)c3)ccc2C)cc1 [Example 72, N-(4′-Cyano-4,3′-dimethyl-biphenyl-3-yl)-4-methyl-benzenesulfonamide] |  |
| < 500 |  | < 500 |  |  | COc1ccc(S(=O)(=O)Nc2cc(-c3csc(C#N)c3)ccc2C)cc1 [Example 73, N-[5-(5-Cyano-thiophen-3-yl)-2-methyl-phenyl]-4-methoxy-benzenesulfonamide] | < 500 |

Continued, compound first:

| Compound | EC50 (MCF7 cells) [nM] | inhibition at 10 µM (tubulin) [%] | EC50 [1] [nM] | IC50 [2] [nM] | EC50 (caspase-3/7) [nM] | EC50 (HG1 cells) [nM] |
| --- | --- | --- | --- | --- | --- | --- |
| Cc1ccc(S(=O)(=O)Nc2cc(-c3ccc(C)o3)ccc2C)cc1 [Example 3, 4-Methyl-N-[2-methyl-5-(5-methyl-furan-2-yl)-phenyl]-benzenesulfonamide] | < 500 | > 50 | < 500 |  |  |  |
| Cc1ccc(S(=O)(=O)Nc2cc(-c3ccsc3)ccc2C)cc1 [Example 8, 4-Methyl-N-(2-methyl-5-thiophen-3-yl-phenyl)-benzenesulfonamide] | < 500 |  | < 500 |  |  | < 500 |
| Cc1ccc(S(=O)(=O)Nc2cc(-c3ccc(C)s3)ccc2C)cc1 [Example 11, 4-Methyl-N-[2-methyl-5-(5-methyl-thiophen-2-yl)-phenyl]-benzenesulfonamide] | < 500 | 20 to 50 |  |  |  |  |
| Cc1ccc(S(=O)(=O)Nc2cc(-n3cccc3)ccc2C)cc1 [Example 15, 4-Methyl-N-(2-methyl-5-pyrrol-1-yl-phenyl)-benzenesulfonamide] | < 500 |  |  | < 500 |  | < 500 |
| COc1ccc(S(=O)(=O)Nc2cc(-c3c(C)noc3C)ccc2C)cc1 [Example 16, N-[5-(3,5-Dimethyl-isoxazol-4-yl)-2-methyl-phenyl]-4-methoxy-benzenesulfonamide] | < 500 | 20 to 50 |  |  |  |  |
| Cc1ccc(S(=O)(=O)Nc2cc(-c3ccccn3)ccc2C)cc1 [Example 19, 4-Methyl-N-(2-methyl-5-pyridin-2-yl-phenyl)-benzenesulfonamide] | 500 to 1000 |  |  |  |  | < 500 |
| Cc1ccc(S(=O)(=O)Nc2cc(-n3cnnc3)ccc2C)cc1 [Example 22, 4-Methyl-N-(2-methyl-5-[1,2,4]triazol-4-yl-phenyl)-benzenesulfonamide] | 1000 to 10000 |  |  |  |  | < 500 |
